System: 292921-168-R-J2-PDC complex spheroid viability
Assay: Anticancer human tumor 292921-168-R-J2-PDC patient-derived pancreatic carcinoma cell line growth inhibition
Details: for IC50: curve of first compound; for viability, T/C: stronger effect = lower value
In short: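 Complex spheroids of tumor cells with HUVEC and human MSCs, exposed to iadademstat combined with other agents. Each agent tested in half-log steps from near clinical Cmax (else 10 microM top), DMSO ≤0.25%.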

[1] = second compound 0.1 µM, first compound 0.0316 µM
[2] = second compound 0.1 µM, first compound 0.1 µM
[3] = second compound 0.316 µM, first compound 0.0316 µM
[4] = second compound 0.316 µM, first compound 0.1 µM
[5] = second compound 1 µM, first compound 0.0316 µM
[6] = second compound 1 µM, first compound 0.1 µM
[7] = second compound 3.16 µM, first compound 0.0316 µM
[8] = second compound 3.16 µM, first compound 0.1 µM
[9] = second compound 10 µM, first compound 0.0316 µM
[10] = second compound 10 µM, first compound 0.1 µM
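Note: seven day compound exposure before luminescent viability read.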
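Throughout, for viability, T/C: 100% = DMSO vehicle control wells.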

`CC1(C)CCC(CN2CCN(c3ccc(C(=O)NS(=O)(=O)c4ccc(NCC5CCOCC5)c([N+](=O)[O-])c4)c(Oc4cnc5[nH]ccc5c4)c3)CC2)=C(c2ccc(Cl)cc2)C1` + NC1CC1c1ccc(-c2cccc(O)c2)cc1 gave an IC50 (second compound 0.1 µM) of 1.86 µM, an IC50 (second compound 0.316 µM) of 1.75 µM and an IC50 (second compound 1 µM) of 1.75 µM. The IC50 (second compound 3.16 µM) was 1.39 µM, the IC50 (second compound 10 µM) was 0.958 µM and the viability, T/C [1] was 75.5%. It also gave a viability, T/C [2] of 92.6%, a viability, T/C (second compound 0.1 µM, first compound 0.316 µM) of 81.9% and a viability, T/C (second compound 0.1 µM, first compound 1 µM) of 82.8%. It also gave a viability, T/C (second compound 0.1 µM, first compound 3.16 µM) of 22.1%, a viability, T/C (second compound 0.1 µM, first compound 10 µM) of 0.22% and a viability, T/C [3] of 72.5%. It also gave a viability, T/C [4] of 79.7%, a viability, T/C (second compound 0.316 µM, first compound 0.316 µM) of 74.5% and a viability, T/C (second compound 0.316 µM, first compound 1 µM) of 78.2%. The viability, T/C (second compound 0.316 µM, first compound 3.16 µM) was 22.5%, the viability, T/C (second compound 0.316 µM, first compound 10 µM) was 0.21% and the viability, T/C [5] was 67.8%. The viability, T/C [6] was 68.3%, the viability, T/C (second compound 1 µM, first compound 0.316 µM) was 71.7% and the viability, T/C (second compound 1 µM, first compound 1 µM) was 78%. For the same compound, the viability, T/C (second compound 1 µM, first compound 3.16 µM) was 27.1%, the viability, T/C (second compound 1 µM, first compound 10 µM) was 0.27% and the viability, T/C [7] was 62.4%. It also gave a viability, T/C [8] of 59%, a viability, T/C (second compound 3.16 µM, first compound 0.316 µM) of 58.3% and a viability, T/C (second compound 3.16 µM, first compound 1 µM) of 65.6%. For the same compound, the viability, T/C (second compound 3.16 µM, first compound 3.16 µM) was 21.6%, the viability, T/C (second compound 3.16 µM, first compound 10 µM) was 0.19% and the viability, T/C [9] was 49.8%. For the same compound, the viability, T/C [10] was 58.4%, the viability, T/C (second compound 10 µM, first compound 0.316 µM) was 52.4% and the viability, T/C (second compound 10 µM, first compound 1 µM) was 49.9%. It also gave a viability, T/C (second compound 10 µM, first compound 3.16 µM) of 12.1% and a viability, T/C (second compound 10 µM, first compound 10 µM) of 0.19%.
`Cn1ncnc1C1c2n[nH]c(=O)c3cc(F)cc(c23)NC1c1ccc(F)cc1` (stereo not given) + NC1CC1c1ccc(-c2cccc(O)c2)cc1 showed an IC50 (second compound 0.1 µM) of over 0.1 µM, an IC50 (second compound 0.316 µM) of over 0.1 µM and an IC50 (second compound 1 µM) of over 0.1 µM. The IC50 (second compound 3.16 µM) was over 0.1 µM, the IC50 (second compound 10 µM) was 0.00646 µM and the viability, T/C (second compound 0.1 µM, first compound 0.000316 µM) was 87.2%. For the same compound, the viability, T/C (second compound 0.1 µM, first compound 0.001 µM) was 83.4%, the viability, T/C (second compound 0.1 µM, first compound 0.00316 µM) was 76.7% and the viability, T/C (second compound 0.1 µM, first compound 0.01 µM) was 71.2%. It also gave a viability, T/C [1] of 67.3%, a viability, T/C [2] of 65.5% and a viability, T/C (second compound 0.316 µM, first compound 0.000316 µM) of 71%. It also gave a viability, T/C (second compound 0.316 µM, first compound 0.001 µM) of 75%, a viability, T/C (second compound 0.316 µM, first compound 0.00316 µM) of 67% and a viability, T/C (second compound 0.316 µM, first compound 0.01 µM) of 63.4%. The viability, T/C [3] was 57.8%, the viability, T/C [4] was 62.2% and the viability, T/C (second compound 1 µM, first compound 0.000316 µM) was 72.2%. The viability, T/C (second compound 1 µM, first compound 0.001 µM) was 62.8%, the viability, T/C (second compound 1 µM, first compound 0.00316 µM) was 67.3% and the viability, T/C (second compound 1 µM, first compound 0.01 µM) was 58.1%. It also gave a viability, T/C [5] of 64%, a viability, T/C [6] of 60.3% and a viability, T/C (second compound 3.16 µM, first compound 0.000316 µM) of 69.2%. It also gave a viability, T/C (second compound 3.16 µM, first compound 0.001 µM) of 64.2%, a viability, T/C (second compound 3.16 µM, first compound 0.00316 µM) of 59.7% and a viability, T/C (second compound 3.16 µM, first compound 0.01 µM) of 54.5%. The viability, T/C [7] was 50.5%, the viability, T/C [8] was 52.5% and the viability, T/C (second compound 10 µM, first compound 0.000316 µM) was 51.9%. It also gave a viability, T/C (second compound 10 µM, first compound 0.001 µM) of 58%, a viability, T/C (second compound 10 µM, first compound 0.00316 µM) of 51.9% and a viability, T/C (second compound 10 µM, first compound 0.01 µM) of 48.3%. The viability, T/C [9] was 43.6% and the viability, T/C [10] was 43.6%.

Reference: PubChem BioAssay AID1918934 (Molecular Pharmacology Branch, DTP, NCI, 2023)
